How the values were obtained:
[1] = system: AR 1.0 cells; assay: Potentiation index with doxorubicin titration; format: cell-based, mouse; conditions: for Potentiation Index at RMA concentration 10 nM: Table C1, RMA 10 nM; for Potentiation Index at RMA concentration 30 nM: Table C1, RMA 30 nM; for Potentiation Index at RMA concentration 50 nM: Table C1, RMA 50 nM; for Potentiation Index at RMA concentration 100 nM: Table C1, RMA 100 nM
Protocol: The EMT6 mouse mammary carcinoma cell line and the MDR resistant subline AR 1.0 were cultured in RPMI 1640 medium containing 10% foetal calf serum and 2 mM glutamine at 37° C. in 5% CO2. Cells were passaged between 1 in 200 and 1 in 2000 in the case of the parental cell line and between 1 in 20 and 1 in 200 in the case of the MDR resistant subline, after trypsinisation (0.25% trypsin, 0.2 gl^-1, EDTA). […]
(b) Cells were cultured for four days with a titration of doxorubicin (0.263 nM-17.24 μM) in the presence of a fixed concentration of each compound. Proliferation was quantified as described by Skehen et al, loc cit. The IC50 (concentration required to reduce proliferation to 50% of the untreated controls) for doxorubicin alone and with each compound were derived and used to calculate the potentiation index (PI): [formula]

[2] = system: AR 1.0 cells; assay: Drug accumulation assay: daunorubicin accumulation in AR 1.0 cells; format: cell-based; conditions: Mus musculus, 100% = accumulation with verapamil 100 μM, 1 hr, 37° C.
Protocol: The EMT6 mouse mammary carcinoma cell line and the MDR resistant subline AR 1.0 were cultured in RPMI 1640 medium containing 10% foetal calf serum and 2 mM glutamine at 37° C. in 5% CO2. Cells were passaged between 1 in 200 and 1 in 2000 in the case of the parental cell line and between 1 in 20 and 1 in 200 in the case of the MDR resistant subline, after trypsinisation (0.25% trypsin, 0.2 gl^-1, EDTA).
AR 1.0 cells were seeded 48 hours prior to assay into 96 well opaque culture plates (Canberra Packard).

| Compound | Potentiation Index at RMA concentration 10 nM [1] | Potentiation Index at RMA concentration 30 nM [1] | Potentiation Index at RMA concentration 50 nM [1] | Potentiation Index at RMA concentration 100 nM [1] | IC50 [2] | Potentiation Index at RMA concentration 20 nM ([1]; Table C1, RMA 20 nM) |
| --- | --- | --- | --- | --- | --- | --- |
| COc1cc2c(cc1OC)CN(CCc1ccc(NC(=O)c3cc(N(C)C)ccc3NC(=O)c3cnc4ccccc4c3)cc1)CC2 [compound 9595, Quinoline-3-carboxylic acid (2-{4-[2-(6,7-dimethoxy-3,4-dihydro-1H-isoquinolin-2-yl)-ethyl]-phenylcarbamoyl}-4-dimethylamino-phenyl)-amide] | 1.45 | 1.93 | 2.99 | 45 | 370 nM |  |
| Cc1ccc(CN(C)CCc2ccc(NC(=O)c3ccccc3NC(=O)c3cnc4ccccc4c3)cc2)cc1C [compound 9631, Quinoline-3-carboxylic acid [2-(4-{2-[(3,4-dimethyl-benzyl)-methyl-amino]-ethyl}-phenylcarbatnoyl)-phenyl]-amide] | 1 | 9 | 20 | 67 | 669 nM |  |
| COc1cc2c(cc1OC)CN(CCc1cccc(NC(=O)c3ccccc3NC(=O)c3cnc4ccccc4c3)c1)CC2 [compound 9633, Quinoline-3-carboxylic acid (2-{3-[2-(6,7-dimethoxy-3,4-dihydro-1H-isoquinolin-2-yl)-ethyl]-phenylcarbamoyl}-phenyl)-amide] | 1.0 | 1.3 | 3.4 | 13.7 | 593 nM |  |
| COc1cc2c(cc1OC)CN(CCc1ccc(NC(=O)c3cscc3NC(=O)c3cnc4ccccc4c3)cc1)CC2 [compound 9616, Quinoline-3-carboxylic acid (4-{4-[2-(6,7-dimethoxy-3,4-dihydro-1H-isoquinolin-2-yl)-ethyl]-phenylcarbamoyl}-thiophen-3-yl)-amide] | 13 | 142 | 143 | 185 | 113 nM |  |
| COc1cc2c(cc1OC)CN(CC(O)COc1ccc(NC(=O)c3ccccc3NC(=O)c3cnc4ccccc4c3)cc1)CC2 (centres unmarked) [compound 9648, Quinoline-3-carboxylic acid (2-{4-[3-(6,7-dimethoxy-3,4-dihydro-1H-isoquinolin-2-yl)-2-hydroxy-propoxy]-phenylcarbamoyl}-phenyl)-amide] | 16 | 34 |  |  | 38 nM |  |
| COc1cc2c(cc1OC)CN(CCSc1ccc(NC(=O)c3ccccc3NC(=O)c3cnc4ccccc4c3)cc1)CC2 [compound 9621, Quinoline-3-carboxylic acid (2-{4-[2-(6,7-dimethoxy-3 ,4-dihydro-1H-isoquinolin-2-yl)-ethylsulfanyl]-phenylcarbamoyl}-phenyl)-amide] | 1.0 | 1.6 | 4.4 | 25 | 453 nM | 1.3 |
| CCCCN(CCc1ccc(NC(=O)c2ccccc2NC(=O)c2cnc3ccccc3c2)cc1)Cc1ccc(OC)c(OC)c1 [compound 9641, Quinoline-3-carboxylic acid [2-(4-{2-[butyl-(3,4-dimethoxy-benzyl)-amino]-ethyl}-phenylcarbamoyl)-phenyl]-amide] | 1.5 | 17 | 46 | 162 | 1.9 nM |  |
| COc1cc2c(cc1OC)CN(CCOc1ccc(NC(=O)c3ccccc3NC(=O)c3cnc4ccccc4n3)cc1)CC2 [compound 9632, Quinoxaline-2-carboxylic acid (2-{4-[2-(6,7-dimethoxy-3,4-dihydro-1H-isoquinolin-2-yl)-ethoxy]-phenylcarbamoyl}-phenyl)-amide] | 1.1 | 2.1 | 2.7 | 8 | 431 nM |  |
| COc1cc2c(cc1OC)C(C)N(CCc1ccc(NC(=O)c3ccccc3NC(=O)c3cnc4ccccc4c3)cc1)CC2 (centres unmarked) [compound 9625, Quinoline-3-carboxylic acid (2-{4-[2-(6,7-dimethoxy-1-methyl-3,4-dihydro-1H-isoquinolin 2-yl)-ethyl]-phenylcarbamoyl}-phenyl)-amide] | 1 | 4 | 7 | 60 | 347 nM |  |
| CCN(CCc1ccc(NC(=O)c2ccccc2NC(=O)c2cnc3ccccc3c2)cc1)Cc1ccc(OC)c(OC)c1 [compound 9636] | 2.6 | 22 | 46 | 131 | 184 nM |  |
| COc1cc2c(cc1OC)CN(CCc1ccc(NC(=O)c3ccccc3NC(=O)c3cnc4cc(C(F)(F)F)ccc4c3O)cc1)CC2 [compound 9592, 4-Hydroxy-7-trifluoromethyl-quinoline-3-carboxylic acid (2-{4-[2-(6,7-dimethoxy-3,4-dihydro-1H-isoquinolin-2-yl)-ethyl]-phenylcarbamoyl}-phenyl)-amide] |  |  |  |  | > 10000 nM |  |
| COc1ccc(CN(CCc2ccc(NC(=O)c3ccccc3NC(=O)c3cnc4ccccc4c3)cc2)C(C)C)cc1OC [compound 9669, Quinoline-3-carboxylic acid [2-(4-{2-[(3,4-dimethoxy-benzyl)-isopropyl-amino]-ethyl}-phenylcarbamoyl)-phenyl]-amide] |  |  |  |  | 469 nM |  |
| COc1cc2c(cc1OC)CN(CCc1ccc(NC(=O)c3ccccc3NC(=O)c3cnccn3)c(C)c1)CC2 [compound 9658, Pyrazine-2-carboxylic acid (2-{4-[2-(6,7-dimethoxy-3,4-dihydro-1H-isoquinolin-2-yl)-ethyl]2-methyl-phenylcarbamoyl}-phenyl)-amide] |  |  |  |  | 2900 nM |  |
| COc1cc2c(cc1OC)CN(CCc1ccc(NC(=O)c3ccccc3NC(=O)c3ccc(O)cc3)cc1)CC2 [compound 9559, 2-(4-Hydroxy-benzoylamino)-N-{4-[2-(6,7-dimethoxy-3,4-dihydro-1H-isoquinolin-2-yl)-ethyl]-phenyl}-benzamide] |  |  |  |  | 2060 nM |  |
| COc1cc2c(cc1OC)CN(CCc1ccc(NC(=O)c3ccccc3NC(=O)c3cccc(C(F)(F)F)c3)cc1)CC2 [compound 9524] |  |  |  |  | 1000 nM |  |
| COc1cc2c(cc1OC)CN(CCNC(=O)c1ccccc1NC(=O)c1cnc3ccccc3c1)CC2 [compound 9397, Quinoline-3-carboxylic acid {2-[2-(6,7 dimethoxy-3,4-dihydro-1H-isoquinolin-2-yl)-ethylcarbamoyl]-phenyl}-amide] |  |  |  |  | 10000 nM |  |
| COc1cc2c(cc1OC)CN(CCNC(=O)c1ccccc1NC(=O)c1cnccn1)CC2 [compound 9391, Pyrazine-2-carboxylic acid {2-[2-(6,7-dimethoxy-3,4-dihydro-1H-isoquinolin-2-yl)-ethylcarbamoyl]-phenyl}-amide] |  |  |  |  | > 10000 nM |  |
| COc1cc2c(cc1OC)CN(CCNC(=O)c1ccccc1NC(=O)c1cccnc1)CC2 [compound 9359, N-{2-[2-(6,7-Dimethoxy-3,4-dihydro-1H-isoquinolin-2-yl)-ethylcarbamoyl]-phenyl}-nicotinamide] |  |  |  |  | > 10000 nM |  |
| O=C(Nc1ccccc1C(=O)Nc1ccc(CCN2CCc3ccc([N+](=O)[O-])cc3C2)cc1)c1cnc2ccccc2c1 [compound 9634, Quinoline-3-carboxylic acid (2-{4-[2-(7-nitro-3,4-dihydro-1H-isoquinolin-2-yl)-ethyl]-phenylcarbamoyl}-phenyl)-amide] |  |  |  |  | 6960 nM |  |
| O=C(Nc1ccccc1C(=O)NCCN1CCc2ccccc2C1)c1ccc(C2CCCCC2)cc1 [compound 9479, 2-(4-Cyclohexyl-benzoylamino)-N-[2-(3,4-dihydro-1H-isoquinolin-2-yl)-ethyl]-benzamide] |  |  |  |  | 2100 nM |  |

— US6218393A, “Anthranilic acid derivatives as multi drug resistance modulators” (priority 1997, dated 2001)
